Measured values from patent US5352667A, “Non-peptidic surrogates of the Arg-Gly-Asp sequence and pharmaceutical compositions comprising them” (priority 1991, dated 1994).
“Also recorded” adds a separate entry of the source.

Tests used:
[1] = test system: trypsin; assay: Treatment with trypsin (HPLC monitoring of hydrolysis); format: in vitro ADME; details: 0.25% trypsin, 37° C., HPLC at 220 nm, aliquots 5, 30, 60 min
Protocol: Compound SF-6,5 and the GRGDS peptide (50 μg in 100 μl PBS) were incubated at 37° C. and exposed to 0.25% trypsin (Gibco; 50μl in modified Puck's buffer). Aliquots were taken after 5, 30 and 60 min and monitored by HPLC at 220 nm.

[2] = test system: CD4^+ T cell adhesion to 120 kD fragment of FN; assay: Inhibition of activated CD4+ T cell adhesion to 120 kD fragment of FN; format: cell-based, human; details: for % inhibition of adhesion of activated CD4^+ T cell to 120 kD fragment of FN / % Adhesion of activated CD4^+ T cell to 120 kD fragment of FN: 0.2 mM peptides and surrogates, mAb anti-CD29 1/200, anti-VLA5 1/400 diluted; for % inhibition of adhesion of activated CD4^+ T cell to 120 kD fragment of FN: * P<0.05; for % Adhesion of activated CD4^+ T cell to 120 kD fragment of FN: PMA activated, none 43 ± 4; for T cell adhesion to FN, in words: 0.2 mM, 120 kD fragment of FN
Protocol: (§1) To examine the adhesive properties of the T cells, 1 μg/50 μl/well of either fibronectin (FN) (Sigma), the 120 kD cell attachment fragment of FN (Telios Pharm. Inc. San Diego, CA), or laminin (LN) (Sigma), were added to 96-flat bottom microtiter-wells for 12 h. Unbound proteins were then washed away and remaining binding sites were blocked with 0.1% bovine serum albumin (BSA) added to the wells for 2 h and washed. CD4+T cells were purified from peripheral blood mononuclear leukocytes obtained from healthy human donors. The mononuclear cells were isolated using a Ficoll gradient, washed and incubated in RPMI supplemented with 10% fetal calf serum (FCS) and antibiotics in petri dishes at 37° C. humidified CO2 incubator. After 2 h, the non-adherent cells were isolated and applied on nylon-wool columns (1.5 h). CD4^+ T cells were then negatively selected by exposure of the cells to a cocktail of anti-CD8, CD19, and CD14 monoclonal antibodies (mAb) conjugated to magnetic-beads (Advanced Magnetics, MA). Unbound cells were recovered and their phenotype was examined. Purity of the CD4^+ T cells was always greater than 92% as determined by FACScan.
(§2) The purified CD4^+ T cells were radioactively labeled with ^51 [Cr](New England Nuclear) in RPMI +20% FCS for 2 h and washed. The cells were counted and seeded (0.2×10^5 cells) on the precoated microtiter wells in the presence or the absence of the various inhibitors. Coating was made either with FN, the 120 kD cell-attachment fragment of FN or with control adhesive protein laminin (LN). The inhibitors were various surrogates according to the invention, other test molecules or mAb. After 30 min incubation (in […] CO2 -- humidified incubator) the T cells were activated by 10 ng/ml phorbol myristate acetate (PMA) and the percent of T cells attached to the protein substrates was measured. Unbound cells were washed away after 20-30 min, the bound cells were lysed and their radioactivity was measured using radioactive counter. The amount of the radioactivity of the cell lysates represent the matrix-adherent cells and percent binding was calculated in comparison to the total radioactivity added to the wells. Activated T cell adhesion to control wells or to wells coated with BSA was always 2-5%; the level of adhesion of the non-activated T cells was always below 5%. Where indicated, 1/200 diluted mAb anti-CD29 (anti-β1 mAb Serotec, GB), or 1/400 diluted anti-VLA5 (the β1α5 FN-integrin receptor) mAb (Telios Pharm. Inc. San Diego), or 0.2 mM of RGD, GRGDSPK or GRGESP peptides (Sigma) were used. The tested non-peptidic surrogates, 0.2 mM in PBS, were used to pretreat the T cells for 15 min before seeding the cells *, P<0.05. The results shown in Tables 1A, 1B and 1C represent data obtained from several experiments that produced essentially similar results.
(§3) The four RGD surrogates, AC-4.

[3] = test system: CD4^+ T cell adhesion to LN; assay: Inhibition of activated CD4+ T cell adhesion to laminin (LN); format: cell-based, human; details: for % inhibition of adhesion of activated CD4^+ T cell to LN / % Adhesion of activated CD4^+ T cell to LN: 0.2 mM peptides and surrogates, mAb anti-CD29 1/200, anti-VLA5 1/400 diluted; for % inhibition of adhesion of activated CD4^+ T cell to LN: * P<0.05; for % Adhesion of activated CD4^+ T cell to LN: none 55 ± 5
Protocol: as §1, §2, §3

[4] = test system: B16-melanoma cells adhesion to VN; assay: Inhibition of B16-melanoma cell adhesion to VN; format: cell-based, murine; details: for % inhibition of adhesion of B16-melanoma cells to VN / % Adhesion of B16-melanoma cells to VN: surrogates 0.2 mM; for % inhibition of adhesion of B16-melanoma cells to VN: * P<0.05; for % Adhesion of B16-melanoma cells to VN: none 68 ± 5
Protocol: To examine the adhesive properties of tumor cells, 1 μg/50μ/well of FN or 0.3μg/well of VN were added to 96-flat bottom microtiter wells for 12 h. Unbound proteins were then washed away and remaining binding sites were blocked with 0.1% BSA added to the wells for 2 h and washed. Murine B16-melanoma F-1 cells were metabolically labeled with ^35 S-methionine (New England Nuclear) for 2 h, chased for 18 h and extensively washed. The cell suspension was resuspened in RPMI supplemented with 1% BSA containing 1 mM CaCl2 and MgCl2. Tumor cell adhesion to control wells or to wells coated with BSA was always 2-5%. The tested non-peptidic surrogates, 0.2 mM in PBS, were used to pretreat the tumor cells for 15 min before seeding the cells *, P<0.05.
In a first series of experiments, the potential inhibitory action of the RGD surrogate SF-6,5 on adhesion of B16 melanoma cells to FN or VN was compared to that of the RGE surrogate SF-6,6 and to that of RGD, GRGDSPK and GRGESP peptides.

[5] = test system: tumor cell-induced metastases; assay: Inhibition of tumor cell-induced metastases in C57BL/6 mice; format: in vivo; details: i.v. daily, 25μg of SF-6,5 per mouse, after induction of metastasis
[6] = test system: DTH response to OX; assay: Inhibition of DTH response to OX in mice (ear swelling); format: in vivo, BALB/c mice; design: % inhibition of DTH response: concentration or dose not given beside the values; details: I.V.; for Δ Ear swelling: ± SD, positive control 21 ± 2
Protocol: To examine the regulatory role of SF-6,5 on T cell immunity and lymphocyte migration in vivo, a delayed-type hypersensitivity (DTH) reaction experiment was performed in which groups of BALB/c mice (6 mice per group) were sensitized on the shaved abdomen with the skin allergen 4-ethoxymethylene-2-phenyl oxazolone (OX) (10 μl of 3% OX in acetone/olive oil) and challenged again 5 days later by applying OX to their ears. The increment in ear swelling was recorded 24 hours later as a measure of DTH. The individual measuring of ear swelling was blinded to the identity of the groups of mice. GRGDS, RGD surrogate compound SF-6,5 and RGE surrogate compound SF-6,6 were administrated I.V. in 200μl PBS into the tail vein on the indicated days. Control groups of mice were treated identically with PBS.
These findings indicate that modulation of cell-mediated immune reactions in vivo may be achieved by relatively low doses of non-peptidic RGD analogue, most probably by means of interfering with lymphocyte migration.

[7] = test system: B16-melanoma cells adhesion to FN; assay: Inhibition of B16-melanoma cell adhesion to FN; format: cell-based, murine
[8] = injected on days 1 to 6, * P<0.01

Row | Molecule | % inhibition of adhesion of activated CD4^+ T cell to 120 kD fragment of FN [2] [%] | % Adhesion of activated CD4^+ T cell to 120 kD fragment of FN [2] [%] | T cell adhesion to FN, in words [2] | % inhibition of adhesion of activated CD4^+ T cell to LN [3] [%] | % Adhesion of activated CD4^+ T cell to LN [3] [%] | % inhibition of adhesion of B16-melanoma cells to VN [4] [%] | % Adhesion of B16-melanoma cells to VN [4] [%] | Inhibition of tumor cell-induced metastases [5] | % inhibition of DTH response ([6]; injected on days 1 to 6) | Δ Ear swelling [6, 8] | further results
1 | N=C(N)NCCCCCC(=O)NCCCCC(=O)O [SF-6,5, 6-aza-7-oxo-12-quanidino-dodecanoic acid] | 49 | 22 ± 2 | most prominent inhibition | 0 | 55 ± 6 | 42 | 40 ± 5 | inhibition of tumor cell-induced metastases | 95% | 2 ± 1 × 10^-2 mm | Stability to trypsin [1]: intact after 60 min; also recorded: completely resistant to trypsin-induced hydrolysis; B-16 melanoma cell adhesion to VN, in words ([4]; Table 2A): inhibited tumor cell adhesion to both FN and VN; Inhibition of DTH response, in words [6]: inhibited the DTH response best when the mice were injected for 6 days; also recorded: better inhibitor of the DTH response than the GRGDS peptide; % inhibition of DTH response ([6]; injected on day 1): 20%; Δ Ear swelling ([6]; injected on day 1): 16 ± 3 × 10^-2 mm; % inhibition of DTH response ([6]; injected on days 1, 3): 34%; % inhibition of DTH response ([6]; injected on days 1, 3, 5): 62%; Δ Ear swelling ([6]; injected on days 1, 3, 5, * P<0.01): 8 ± 2 × 10^-2 mm; Δ Ear swelling ([6]; injected on days 1, 3): 13 ± 2 × 10^-2 mm; % Adhesion of activated tumor cells to FN: (% inhibition) ([7]; Conc. 25 μg. ml): 10%; % Adhesion of activated tumor cells to FN: (% inhibition) ([7]; Conc. 50 μg. ml): 20%; % Adhesion of activated tumor cells to FN: (% inhibition) ([7]; Conc. 100 μg. ml): 30%; % Adhesion of activated tumor cells to FN: (% inhibition) ([7]; Conc. 200 μg. ml): 45%
2 | N=C(N)NCCCCCC(=O)NCCCCCC(=O)O [SF-6,6] | 0 | 46 ± 2 | did not inhibit T cell adhesion to both FN and LN | 0 | 52 ± 6 | 0 | 70 ± 7 | failed to inhibit metastases | None | 23 ± 4 × 10^-2 mm | T cell adhesion to LN, in words ([3]; 0.2 mM): did not inhibit T cell adhesion to both FN and LN
3 | GRGDSPK [RGD peptide (Sigma)] | 54 | 20 ± 2 | specifically inhibited | 0 | 53 ± 4 | 86 | 10 ± 2 |  | 20% | 17 ± 3 × 10^-2 mm | 
